Test results as given in US11512089B2, “Substituted [1,2,4]triazolo[3,4-a]phthalazines as modulators of GABAA receptor activity” (SHANGHAI SIMR BIOTECHNOLOGY CO., LTD, priority 2018, dated 2022).
Converted amounts (≈) assume the structure as drawn.

Legend:
α5-GABAA receptor = target: T1, α5-GABAA receptor (Homo sapiens, UniProt P18507+P31644); assay: Whole cell patch clamp, inverse agonism efficacy on GABA-induced current in HEK-293 cells expressing α5-GABAA receptor; assay type: cell-based; conditions: HEK293; compound 100 nM, GABA 0.05 μM; ratio to reference compound Example 7 in CN106854207A in the same batch
T1 construct: expressed in transfected cells; host or cells: HEK-293 (monoclonal, stably transfected)
T1 sequence (P31644 32-462): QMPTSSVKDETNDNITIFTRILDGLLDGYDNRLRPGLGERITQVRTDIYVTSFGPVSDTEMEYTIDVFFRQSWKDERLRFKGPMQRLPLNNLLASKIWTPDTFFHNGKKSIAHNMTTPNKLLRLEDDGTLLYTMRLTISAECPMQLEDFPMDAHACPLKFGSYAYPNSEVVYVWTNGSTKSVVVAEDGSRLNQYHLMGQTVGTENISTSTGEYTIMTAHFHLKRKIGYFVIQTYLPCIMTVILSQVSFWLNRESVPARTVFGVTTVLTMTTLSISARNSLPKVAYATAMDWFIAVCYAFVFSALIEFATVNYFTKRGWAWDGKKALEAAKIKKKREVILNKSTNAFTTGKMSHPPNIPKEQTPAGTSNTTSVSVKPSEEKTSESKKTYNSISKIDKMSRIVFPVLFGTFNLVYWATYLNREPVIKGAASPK
T1 sequence (P28472 26-473 partner): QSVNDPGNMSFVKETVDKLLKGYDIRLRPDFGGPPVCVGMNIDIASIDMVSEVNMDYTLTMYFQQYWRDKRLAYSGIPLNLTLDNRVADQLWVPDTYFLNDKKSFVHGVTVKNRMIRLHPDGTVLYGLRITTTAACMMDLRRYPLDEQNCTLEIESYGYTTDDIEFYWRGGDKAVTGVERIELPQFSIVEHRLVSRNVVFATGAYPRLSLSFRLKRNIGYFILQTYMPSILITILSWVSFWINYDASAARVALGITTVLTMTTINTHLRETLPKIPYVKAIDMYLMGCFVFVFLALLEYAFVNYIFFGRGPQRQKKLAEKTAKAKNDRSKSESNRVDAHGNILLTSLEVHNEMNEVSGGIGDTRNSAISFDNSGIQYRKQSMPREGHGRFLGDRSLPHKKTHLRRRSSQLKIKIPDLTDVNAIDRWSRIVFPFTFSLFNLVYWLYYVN
T1 sequence (P18507 40-467 isoform P18507-1 limits assumed): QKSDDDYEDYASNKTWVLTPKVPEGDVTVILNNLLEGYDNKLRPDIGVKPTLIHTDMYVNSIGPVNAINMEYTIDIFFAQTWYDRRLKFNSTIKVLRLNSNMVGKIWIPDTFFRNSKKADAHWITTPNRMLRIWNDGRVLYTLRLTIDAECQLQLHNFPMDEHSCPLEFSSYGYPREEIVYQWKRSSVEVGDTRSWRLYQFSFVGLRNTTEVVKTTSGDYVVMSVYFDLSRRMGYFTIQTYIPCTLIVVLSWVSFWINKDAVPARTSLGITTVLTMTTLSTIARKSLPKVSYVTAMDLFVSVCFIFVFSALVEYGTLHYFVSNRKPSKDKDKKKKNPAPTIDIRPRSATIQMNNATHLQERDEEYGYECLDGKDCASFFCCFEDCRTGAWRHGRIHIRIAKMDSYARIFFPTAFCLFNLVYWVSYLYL
Experimental: The inventors used electrophysiological methods to determine the inverse agonist efficacy of the substances to be tested. The detailed procedures are as follows:
(1) Different subunits of GABAA receptors were expressed in human embryonic kidney cells 293 (HEK293). The cells were cultured in a culture medium and used as a cell model for screening potential analgesics. The α, β and γ subunits are necessary to form complete functional GABAA receptors. In this example, the inventors have established the following cell model: (a) α5 subunit (protein sequence is GenBank accession number: NM_000810.3), (33 subunit (protein sequence is GenBank accession number: NM_000814.5) and γ2 subunit (protein sequence is GenBank accession number: NM_000816.3) were expressed in HEK-293 cell line at the same time, followed by screening the monoclonal cell line. This cell line contained α5-GABAA receptor and had complete GABAA receptor function.
(2) The monoclonal stably transfected HEK-293 cells expressing α5-GABAA receptor were cultured in 10 cm culture dishes. The cells were passaged after reaching 80-90% confluence. During passaging, the culture medium was removed and discarded, 3 mL of DPBS (phosphate buffered saline, Gibco™) was added to the dishes, the dishes were shaken slightly, and DPBS was removed and discarded. 1 mL of trypsin (TrypLE Express, Gibco™) was added and the cells were digested at 37° C. for 1-2 minutes. Then 3 mL of complete medium (DMEM+10% FBS (Gibco™)) was added and the cells at the bottom of the culture dishes were dispersed. The cell suspension were transferred to a 15 mL centrifugal tube (Corning™) and then centrifuged at 200 g for 3 minutes. The supernatant was discarded, 4 mL of complete medium was added, and the cells were resuspended by gently blowing. The cell suspension was diluted by 1:5 or 1:10 for subculturing. The cell suspension was diluted by 1:12 for electrophysiology experiment, and added to a 24 well plate (Corning™) with a glass slide pre-treated with poly-D-lysine placed thereon; the experiment was initiated after the cells were adhered to the slide. The cells for electrophysiology experiment were maintained in culture for no more than 48 hours before use.
(3) Compound concentration: for screening, all compounds were diluted to a final concentration of 100 nM and the concentration of GABA was 0.05 μM. The compounds were at the concentration of 0.3 nM, 3 nM, 10 nM, 30 nM, 100 nM and 300 nM in dose-inverse agonism efficacy (%) experiment. The whole cell patch clamp technique was used in electrophysiology experiments, which can refer to the literature (I. Lecker, Y. Yin, D. S. Wang and B. A. Orser, (2013) Potentiation of GABAA receptor activity by volatile anaesthetics is reduced by α5-GABAA receptor-preferring inverse agonists, British Journal of Anaesthesia 110 (S1): i73-i81). The extracellular solution (ECS) contained: 150 mM NaCl, 5 mM KCl, 2.5 mM CaCl2, 1 mM MgCl2, 10 mM HEPES and 10 mM glucose (pH 7.4); Patch electrodes were filled with an intracellular solution containing: 140 mM CsCl, 11 mM EGTA, 10 mM HEPES, 2 mM CaCl2, 1 mM MgCl2, 4 mM MgATP, 2 mM TEA (pH 7.3). The currents were recorded by an EPC-10 amplifier and the PatchMaster software (HEKA). Patch electrodes with a resistance of 4-6 MΩ were pulled from borosilicate glass. The ALA-VC3-8PP™ system was used for extracellular administration. Separate cells that grew independently was selected for recording. During recording, the membrane voltage was clamped at −60 mV. During experiment, the cells were firstly perfused with ECS for 20 seconds. When the baseline reached to a stable state, the cells were then perfused with GABA solution. Then the current induced by GABA could be detected. After about 20 to 40 seconds, the current was stable. ECS was switched to compounds solution and the effects of the compounds were detected. At last, the perfusion solution was switched to ECS. […]

[1] = Kinetic solubility in 50 mM phosphate buffer pH 7.4; assay type: physicochemical; conditions: aqueous buffer, kinetic from dmso stock, 50 mM phosphate buffer pH 7.4, 2% DMSO, room temperature
Experimental: (§1) 50 mM phosphate buffer pH=7.4: 0.39 g of NaH2PO4.2H2O, and 1.4025 g of Na2HPO4 were weighted and placed in an erlenmeyer flask, 240 mL of water was added. The solid was dissolved and mixed thoroughly, the pH value was adjusted to 7.4 with 10M NaOH solution, and the resulting solution was transferred to a 250 mL volumetric flask, followed by adding water to the mark.
(§2) Waters e2695 HPLC high performance liquid chromatography, Mettler XSE105 analytical balance.
(§3) Firstly, a 10 mM stock solution with DMSO as the solvent was prepared, and was diluted with a diluent (ACN: PB buffer 50:50) into 1 μM-200 μM as standard solution.
Kinetic solubility. 30 μL of the stock solution was placed in a 2 mL centrifuge tube, 1470 μL of 50 mM phosphate buffer (pH 7.4) (containing DMSO at a final concentration of 2%) was added. The mixture was shaken at room temperature (1000 rpm/min) for 24 hours, and then filtered. The filtrate was tested by high performance liquid chromatography (UV).

[2] = Thermodynamic solubility in 50 mM phosphate buffer pH 7.4; assay type: physicochemical; conditions: aqueous buffer, thermodynamic from solid, 50 mM phosphate buffer pH 7.4, room temperature
Experimental: as §1, §2, §3
Thermodynamic solubility. About 1 mg of the sample was weighted, 1.5 mL of 50 mM phosphate buffer (pH 7.4) was added thereto, and the mixture was shaken at room temperature for 24 hours to ensure that the solution reached a state of saturation. The solution was then filtered, and the filtrate was tested with high-performance liquid chromatography (UV).

| Structure (SMILES) | Emax at 0.1 µM (α5-GABAA receptor) [%] | solubility kinetic at 24 h [1] [µg/mL] | solubility thermodynamic at 24 h [2] [µg/mL] |
| --- | --- | --- | --- |
| COCc1cc(-c2nnc3c4ccccc4c(OCc4ccc(C(=O)N[C@@H](C)COC)cn4)nn23)no1 [Compound 05, (S)—N-(2-methoxy-1-methyl-ethyl)-6-[3-(5-methoxymethyl-isoxazol-3-yl)-[1,2,4]triazolo[3,4-a]phthalazin-6-yloxymethyl]-nicotinamide] | 90 | 25.6 (≈ 50.7 µM) |  |
| COCc1cc(-c2nnc3c4ccccc4c(OCc4ccc(C(=O)NC[C@@H]5CCCO5)cn4)nn23)no1 [Compound 06, (S)-6-[3-(5-methoxymethyl-isoxazol-3-yl)-[1,2,4]triazolo[3,4-a]phthalazin-6-yloxymethyl]-N-(tetrahydro-furan-2-ylmethyl)-nicotinamide] | 74.9 | 13.6 (≈ 26.4 µM) |  |
| COCCNC(=O)c1ccc(COc2nn3c(-c4cc(COC)on4)nnc3c3ccccc23)nc1 [Compound 07, N-(2-methoxy-ethyl)-6-[3-(5-methoxymethyl-isoxazol-3-yl)-[1,2,4]triazolo[3,4-a]phthalazin-6-yloxymethyl]-nicotinamide] | 108 | 23.2 (≈ 47.4 µM) |  |
| COCc1cc(-c2nnc3c4ccccc4c(OCc4ccc(C(=O)NC(C)COC)cn4)nn23)no1 (centres unmarked) [Compound 10, N-(2-methoxy-1-methyl-ethyl)-6-[3-(5-methoxymethyl-isoxazol-3-yl)-[1,2,4]triazolo[3,4-a]phthalazin-6-yloxymethyl]-nicotinamide] | 103 | 18.9 (≈ 37.6 µM) |  |
| COCc1cc(-c2nnc3c4ccccc4c(OCc4ccc(C(=O)NCC(F)(F)F)cn4)nn23)no1 [Compound 15, N-(2,2,2-trifluoroethyl)-6-((3-(5-methoxymethylisoxazol-3-yl)-[1,2,4]triazolo[3,4-a]phthalazin-6-oxy)methylene)nicotinamide] |  | 0.77 (≈ 1.5 µM) | 0.84 (≈ 1.64 µM) |
| COCc1cc(-c2nnc3c4ccccc4c(OCc4ccc(C(=O)NCC5COC5)cn4)nn23)no1 [Compound 18] | 115 | 10.8 (≈ 21.4 µM) |  |
| COCc1cc(-c2nnc3c4ccccc4c(OCc4ccc(C(=O)NCC5(C)COC5)cn4)nn23)no1 [Compound 20, N-((3-methyl(oxetanyl)-methyl)-6-{3-[5(methoxymethyl)isoxazol-3-yl]-[1,2,4]triazole[3,4-a]phthalazin-6-oxy)methylene}nicotinamide] | 118 | 10.1 (≈ 19.7 µM) |  |
| COCc1cc(-c2nnc3c4ccccc4c(OCc4ccc(C(=O)NC5CCC5)cn4)nn23)no1 [Compound 23] | 73.7 | 9.11 (≈ 18.8 µM) |  |
| COCc1cc(-c2nnc3c4ccccc4c(OCc4ccc(C(=O)NCC(F)F)cn4)nn23)no1 [Compound 24] |  | 1.39 (≈ 2.81 µM) | 0.74 (≈ 1.49 µM) |
| COCc1cc(-c2nnc3c4ccccc4c(OCc4ccc(C(=O)NCCC#N)cn4)nn23)no1 [Compound 28, N-(2-cyano-ethyl)-6-[3-(5-methoxymethyl-isoxazol-3-yl)-[1,2,4]triazolo[3,4-a]phthalazin-6-yloxymethyl]-nicotinamide] | 133 | 3.68 (≈ 7.6 µM) |  |
| COCc1cc(-c2nnc3c4ccccc4c(OCc4ccc(C(=O)NC(COC)COC)cn4)nn23)no1 [Compound 30] | 85.2 | 6.85 (≈ 12.8 µM) |  |
| COCc1cc(-c2nnc3c4ccccc4c(OCc4ccc(C(=O)NC56CC(C5)C6)cn4)nn23)no1 [Compound 31] | 95.1 | 4.19 (≈ 8.42 µM) |  |
| COCc1cc(-c2nnc3c4ccccc4c(OCc4ccc(C(=O)NC5CN(C(C)=O)C5)cn4)nn23)no1 [Compound 32] | 89.1 | 29.7 (≈ 56.3 µM) |  |
| COCc1cc(-c2nnc3c4ccccc4c(OCc4ccc(C(=O)N5CCC(F)(F)CC5)cn4)nn23)no1 [Compound 34] |  | 4.6 (≈ 8.59 µM) | 4.4 (≈ 8.22 µM) |
| COCc1cc(-c2nnc3c4ccccc4c(OCc4ccc(C(=O)N5CC6(COC6)C5)cn4)nn23)no1 [Compound 39] | 90.2 | 48.5 (≈ 94.3 µM) |  |
| COCc1cc(-c2nnc3c4ccccc4c(OCc4ccc(C(=O)N(C)CC5CC5)cn4)nn23)no1 [Compound 40] | 78.3 | 31.9 (≈ 63.9 µM) |  |
| COCc1cc(-c2nnc3c4ccccc4c(OCc4ccc(C(=O)N5C[C@@H]6C[C@H]5CO6)cn4)nn23)no1 [Compound 43] | 86.9 | 100 (≈ 195 µM) |  |
| COCc1cc(-c2nnc3c4ccccc4c(OCc4ccc(C(=O)N5CCC(O)CC5)cn4)nn23)no1 [Compound 45] | 88.4 | 6.93 (≈ 13.4 µM) |  |
| COCc1cc(-c2nnc3c4ccccc4c(OCc4ccc(C(=O)N5CCOCC5C)cn4)nn23)no1 (centres unmarked) [Compound 47, (6-(((3-(5-(methoxymethyl)isoxazol-3-yl)-[1,2,4]triazolo[3,4-a]phthalazin-6-yl)oxy)methyl)pyridin-3-yl)(3-methylmorpholino)methanone] | 72.5 | 97.8 (≈ 190 µM) |  |
| COCc1cc(-c2nnc3c4ccccc4c(OCc4ccc(C(=O)N5CCCC5)cn4)nn23)no1 [Compound 48] | 78.7 | 31.7 (≈ 65.3 µM) |  |
| COCc1cc(-c2nnc3c4ccccc4c(OCc4ccc(C(=O)N5CCOC(C)C5)cn4)nn23)no1 (centres unmarked) [Compound 54] | 77.5 | 97.9 (≈ 190 µM) |  |
| COCc1cc(-c2nnc3c4ccccc4c(OCc4ccc(C(=O)N5CCC6(CC5)COC6)cn4)nn23)no1 [Compound 56, {6-[3-(5-methoxymethyl-isoxazol-3-yl)-[1,2,4]triazolo[3,4-a]phthalazin-6-yloxymethyl]-pyridin-3-yl}-(2-oxa-7-aza-spiro[3.5]non-7-yl)-methanone] | 111 | 12.5 (≈ 23.1 µM) |  |
| CCNC(=O)c1ccc(COc2nn3c(-c4cc(C)on4)nnc3c3ccccc23)nc1 [drawing 164, reference compound] |  | 0.62 (≈ 1.44 µM) | < 0.5 |
| Cc1cc(-c2nnc3c4ccccc4c(OCc4ccc(C(=O)N5CCOCC5)cn4)nn23)no1 [drawing 171, reference compound] |  | 1.95 (≈ 4.14 µM) | 1.7 (≈ 3.61 µM) |
| COCCNC(=O)c1ccc(COc2nn3c(-c4cc(C)on4)nnc3c3ccccc23)nc1 [reference compound] |  | 0.92 (≈ 2 µM) | 1.5 (≈ 3.26 µM) |
